Reference: patent US20260070945A1, “MACROCYCLIC IMMUNOMODULATORS” (Bristol-Myers Squibb Company, priority 2022, published 2026)
Where a SMILES comes first, the peptide text is derived from it. Bridges are numbered along the chain shown (N, C = ends). [ ]: non-standard residue; d: D form. The star is where a group is joined. Bip = N[C@@H](Cc1ccc(-c2ccccc2)cc1)C(=O)O; Cha = N[C@@H](CC1CCCCC1)C(=O)O; Carboxymethyl = O=C(O)C*; NMeA = CN[C@@H](C)C(=O)O; Orn = NCCC[C@H](N)C(=O)O; Aun = NCCCCCCCCCCC(=O)O; Dab = NCC[C@H](N)C(=O)O; AEEA = NCCOCCOCC(=O)O

These molecules were tested against T1, PD-1/PD-L1 interaction (PE-labeled human PD-L1-Ig binding to Jurkat cell line over-expressing human PD-1) (Homo sapiens, UniProt Q15116) (assay: Jurkat-PD-1 Cell Binding High-Content Screening Assay (CBA)). Conditions: Jurkat-hPD-1 cells, PE-labeled PD-L1-Ig 20 nM final; read-out: Jurkat HPD1 PDL1 IC50.
T1 construct: expressed in transfected cells; host or cells: Jurkat
Outline: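 Cells 8×10^3/well, DMEM + 10% FCS; cpd 2 h, 37 °C; PE–PD-L1-Ig 20 nM final, 1 h; PFA fix + Hoechst 33342, 3× dPBS wash; high-content imager.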

T1 sequence (Q15116 25-288): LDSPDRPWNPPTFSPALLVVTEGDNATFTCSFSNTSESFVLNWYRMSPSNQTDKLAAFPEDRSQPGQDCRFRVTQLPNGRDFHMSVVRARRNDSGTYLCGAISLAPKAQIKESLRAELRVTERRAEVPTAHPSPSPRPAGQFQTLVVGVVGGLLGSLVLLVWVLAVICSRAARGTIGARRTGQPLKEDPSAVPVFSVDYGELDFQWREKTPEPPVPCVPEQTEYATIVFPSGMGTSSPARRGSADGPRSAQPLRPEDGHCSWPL

Q: With `CC(C)C[C@H]1NC(=O)[C@H](C)N(C)C(=O)[C@H](Cc2ccc(OCC(=O)O)cc2)NC(=O)[C@H](Cc2ccc(-c3ccccc3)cc2)NC(=O)[C@H](Cc2ccc(OCC(=O)O)cc2)NC(=O)[C@H](Cc2c[nH]c3ccccc23)NC(=O)[C@H](CC(=O)O)NC(=O)[C@H](Cc2ccc(OCC(=O)O)cc2)NC(=O)[C@H]([C@@H](C)O)NC(=O)CSC[C@@H](C(=O)N[C@@H](CCCN)C(=O)NCCOCCOCC(=O)NCCCCCCCCCCC(=O)O)NC(=O)[C@H](CO)NC(=O)[C@H](C(C)C)NC(=O)[C@H](CC2CCCCC2)NC(=O)[C@H](CC(N)=O)NC1=O` [Example 1389] ({CH2CO}-TY(Carboxymethyl)DWY(Carboxymethyl)[Bip]Y(Carboxymethyl)[NMeA][dL]N[Cha]VSC[Orn][AEEA][Aun]-OH; thioether N-14) as the molecule, how does the IC50 read?
A: Its IC50 is 227 nM.

Q: How did the IC50 turn out when `CC(C)C[C@H]1NC(=O)[C@H](C)N(C)C(=O)[C@H](Cc2ccc(OCC(=O)O)cc2)NC(=O)[C@H](Cc2ccc(-c3ccccc3)cc2)NC(=O)[C@H](Cc2ccc(OCC(=O)O)cc2)NC(=O)[C@H](Cc2c[nH]c3ccccc23)NC(=O)[C@H](CC(=O)O)NC(=O)[C@H](Cc2ccc(OCC(=O)O)cc2)NC(=O)[C@H]([C@@H](C)O)NC(=O)CSC[C@@H](C(=O)N[C@@H](CCN)C(=O)NCCOCCOCC(=O)NCCCCCCCCCCC(=O)O)NC(=O)[C@H]([C@@H](C)O)NC(=O)[C@H](C(C)C)NC(=O)[C@H](CC2CCCCC2)NC(=O)[C@H](CCN)NC1=O` [Example 1390] ({CH2CO}-TY(Carboxymethyl)DWY(Carboxymethyl)[Bip]Y(Carboxymethyl)[NMeA][dL][Dab][Cha]VTC[Dab][AEEA][Aun]-OH; thioether N-14) was run?
A: The IC50 was 27.3 nM.

Q: For `CC(C)C[C@H]1NC(=O)[C@H](C)N(C)C(=O)[C@H](Cc2ccc(OCC(=O)O)cc2)NC(=O)[C@H](Cc2ccc(-c3ccccc3)cc2)NC(=O)[C@H](Cc2ccc(OCC(=O)O)cc2)NC(=O)[C@H](Cc2c[nH]c3ccccc23)NC(=O)[C@H](CC(=O)O)NC(=O)[C@H](Cc2ccc(OCC(=O)O)cc2)NC(=O)[C@H]([C@@H](C)O)NC(=O)CSC[C@@H](C(=O)N[C@@H](CCN)C(=O)NCCOCCOCC(=O)NCCCCCCCCCCC(=O)O)NC(=O)[C@H](CO)NC(=O)[C@H](C(C)C)NC(=O)[C@H](CC2CCCCC2)NC(=O)[C@H](CCN)NC1=O` [Example 1391] ({CH2CO}-TY(Carboxymethyl)DWY(Carboxymethyl)[Bip]Y(Carboxymethyl)[NMeA][dL][Dab][Cha]VSC[Dab][AEEA][Aun]-OH; thioether N-14), which IC50 is on record?
A: Its IC50 is 25.8 nM.

Q: How did the IC50 turn out when `CC(C)C[C@H]1NC(=O)[C@H](C)N(C)C(=O)[C@H](Cc2ccc(OCC(=O)O)cc2)NC(=O)[C@H](Cc2ccc(-c3ccccc3)cc2)NC(=O)[C@H](Cc2ccc(OCC(=O)O)cc2)NC(=O)[C@H](Cc2c[nH]c3ccccc23)NC(=O)[C@H](CC(=O)O)NC(=O)[C@H](Cc2ccc(OCC(=O)O)cc2)NC(=O)[C@H]([C@@H](C)O)NC(=O)CSC[C@@H](C(=O)N[C@@H](CCN)C(=O)NCCOCCOCC(=O)NCCCCCCCCCCC(=O)O)NC(=O)[C@H](CCC(=O)O)NC(=O)[C@H](C(C)C)NC(=O)[C@H](CC2CCCCC2)NC(=O)[C@H](CCN)NC1=O` [Example 1392] ({CH2CO}-TY(Carboxymethyl)DWY(Carboxymethyl)[Bip]Y(Carboxymethyl)[NMeA][dL][Dab][Cha]VEC[Dab][AEEA][Aun]-OH; thioether N-14) was run?
A: Its IC50 is 62.5 nM.

Q: With `CC(C)C[C@H]1NC(=O)[C@H](C)N(C)C(=O)[C@H](Cc2ccc(OCC(=O)O)cc2)NC(=O)[C@H](Cc2ccc(-c3ccccc3)cc2)NC(=O)[C@H](Cc2ccc(OCC(=O)O)cc2)NC(=O)[C@H](Cc2c[nH]c3ccccc23)NC(=O)[C@H](CC(=O)O)NC(=O)[C@H](Cc2ccc(OCC(=O)O)cc2)NC(=O)[C@H]([C@@H](C)O)NC(=O)CSC[C@@H](C(=O)N[C@@H](CCN)C(=O)NCCOCCOCC(=O)NCCCCCCCCCCC(=O)O)NC(=O)[C@H](CC(N)=O)NC(=O)[C@H](C(C)C)NC(=O)[C@H](CC2CCCCC2)NC(=O)[C@H](CCN)NC1=O` [Example 1393] ({CH2CO}-TY(Carboxymethyl)DWY(Carboxymethyl)[Bip]Y(Carboxymethyl)[NMeA][dL][Dab][Cha]VNC[Dab][AEEA][Aun]-OH; thioether N-14) as the molecule, how does the IC50 read?
A: Its IC50 is 33.1 nM.

Q: With `CC(C)C[C@H]1NC(=O)[C@H](C)N(C)C(=O)[C@H](Cc2ccc(OCC(=O)O)cc2)NC(=O)[C@H](Cc2ccc(-c3ccccc3)cc2)NC(=O)[C@H](Cc2ccc(OCC(=O)O)cc2)NC(=O)[C@H](Cc2c[nH]c3ccccc23)NC(=O)[C@H](CC(=O)O)NC(=O)[C@H](Cc2ccc(OCC(=O)O)cc2)NC(=O)[C@H]([C@@H](C)O)NC(=O)CSC[C@@H](C(=O)N[C@@H](CCCN)C(=O)NCCOCCOCC(=O)NCCCCCCCCCCC(=O)O)NC(=O)[C@H]([C@@H](C)O)NC(=O)[C@H](C(C)C)NC(=O)[C@H](CC2CCCCC2)NC(=O)[C@H](CCN)NC1=O` [Example 1394] ({CH2CO}-TY(Carboxymethyl)DWY(Carboxymethyl)[Bip]Y(Carboxymethyl)[NMeA][dL][Dab][Cha]VTC[Orn][AEEA][Aun]-OH; thioether N-14) as the molecule, how does the IC50 read?
A: The IC50 was 143 nM.

Q: For `CC(C)C[C@H]1NC(=O)[C@H](C)N(C)C(=O)[C@H](Cc2ccc(OCC(=O)O)cc2)NC(=O)[C@H](Cc2ccc(-c3ccccc3)cc2)NC(=O)[C@H](Cc2ccc(OCC(=O)O)cc2)NC(=O)[C@H](Cc2c[nH]c3ccccc23)NC(=O)[C@H](CC(=O)O)NC(=O)[C@H](Cc2ccc(OCC(=O)O)cc2)NC(=O)[C@H]([C@@H](C)O)NC(=O)CSC[C@@H](C(=O)N[C@@H](CCCN)C(=O)NCCOCCOCC(=O)NCCCCCCCCCCC(=O)O)NC(=O)[C@H](CO)NC(=O)[C@H](C(C)C)NC(=O)[C@H](CC2CCCCC2)NC(=O)[C@H](CCN)NC1=O` [Example 1395] ({CH2CO}-TY(Carboxymethyl)DWY(Carboxymethyl)[Bip]Y(Carboxymethyl)[NMeA][dL][Dab][Cha]VSC[Orn][AEEA][Aun]-OH; thioether N-14), which IC50 is on record?
A: The IC50 was 56.5 nM.

Q: How did the IC50 turn out when `CC(C)C[C@H]1NC(=O)[C@H](C)N(C)C(=O)[C@H](Cc2ccc(OCC(=O)O)cc2)NC(=O)[C@H](Cc2ccc(-c3ccccc3)cc2)NC(=O)[C@H](Cc2ccc(OCC(=O)O)cc2)NC(=O)[C@H](Cc2c[nH]c3ccccc23)NC(=O)[C@H](CC(=O)O)NC(=O)[C@H](Cc2ccc(OCC(=O)O)cc2)NC(=O)[C@H]([C@@H](C)O)NC(=O)CSC[C@@H](C(=O)N[C@@H](CCCN)C(=O)NCCOCCOCC(=O)NCCCCCCCCCCC(=O)O)NC(=O)[C@H](CCC(=O)O)NC(=O)[C@H](C(C)C)NC(=O)[C@H](CC2CCCCC2)NC(=O)[C@H](CCN)NC1=O` [Example 1396] ({CH2CO}-TY(Carboxymethyl)DWY(Carboxymethyl)[Bip]Y(Carboxymethyl)[NMeA][dL][Dab][Cha]VEC[Orn][AEEA][Aun]-OH; thioether N-14) was run?
A: The IC50 was 304 nM.

Q: Which IC50 does the source give for `CC(C)C[C@H]1NC(=O)[C@H](C)N(C)C(=O)[C@H](Cc2ccc(OCC(=O)O)cc2)NC(=O)[C@H](Cc2ccc(-c3ccccc3)cc2)NC(=O)[C@H](Cc2ccc(OCC(=O)O)cc2)NC(=O)[C@H](Cc2c[nH]c3ccccc23)NC(=O)[C@H](CC(=O)O)NC(=O)[C@H](Cc2ccc(OCC(=O)O)cc2)NC(=O)[C@H]([C@@H](C)O)NC(=O)CSC[C@@H](C(=O)N[C@@H](CCCN)C(=O)NCCOCCOCC(=O)NCCCCCCCCCCC(=O)O)NC(=O)[C@H](CC(N)=O)NC(=O)[C@H](C(C)C)NC(=O)[C@H](CC2CCCCC2)NC(=O)[C@H](CCN)NC1=O` [Example 1397] ({CH2CO}-TY(Carboxymethyl)DWY(Carboxymethyl)[Bip]Y(Carboxymethyl)[NMeA][dL][Dab][Cha]VNC[Orn][AEEA][Aun]-OH; thioether N-14) here?
A: The IC50 was 123 nM.

Q: For `CC(C)C[C@H]1NC(=O)[C@H](C)N(C)C(=O)[C@H](Cc2ccc(OCC(=O)O)cc2)NC(=O)[C@H](Cc2ccc(-c3ccccc3)cc2)NC(=O)[C@H](Cc2ccc(OCC(=O)O)cc2)NC(=O)[C@H](Cc2c[nH]c3ccccc23)NC(=O)[C@H](CC(=O)O)NC(=O)[C@H](Cc2ccc(OCC(=O)O)cc2)NC(=O)[C@H]([C@@H](C)O)NC(=O)CSC[C@@H](C(=O)N[C@@H](CCN)C(=O)NCCOCCOCC(=O)NCCCCCCCCCCC(=O)O)NC(=O)[C@H]([C@@H](C)O)NC(=O)[C@H](C(C)C)NC(=O)[C@H](CC2CCCCC2)NC(=O)[C@H](CCC(=O)O)NC1=O` [Example 1398] ({CH2CO}-TY(Carboxymethyl)DWY(Carboxymethyl)[Bip]Y(Carboxymethyl)[NMeA][dL]E[Cha]VTC[Dab][AEEA][Aun]-OH; thioether N-14), which IC50 is on record?
A: The IC50 was 85.5 nM.

Q: How did the IC50 turn out when `CC(C)C[C@H]1NC(=O)[C@H](C)N(C)C(=O)[C@H](Cc2ccc(OCC(=O)O)cc2)NC(=O)[C@H](Cc2ccc(-c3ccccc3)cc2)NC(=O)[C@H](Cc2ccc(OCC(=O)O)cc2)NC(=O)[C@H](Cc2c[nH]c3ccccc23)NC(=O)[C@H](CC(=O)O)NC(=O)[C@H](Cc2ccc(OCC(=O)O)cc2)NC(=O)[C@H]([C@@H](C)O)NC(=O)CSC[C@@H](C(=O)N[C@@H](CCN)C(=O)NCCOCCOCC(=O)NCCCCCCCCCCC(=O)O)NC(=O)[C@H](CO)NC(=O)[C@H](C(C)C)NC(=O)[C@H](CC2CCCCC2)NC(=O)[C@H](CCC(=O)O)NC1=O` [Example 1399] ({CH2CO}-TY(Carboxymethyl)DWY(Carboxymethyl)[Bip]Y(Carboxymethyl)[NMeA][dL]E[Cha]VSC[Dab][AEEA][Aun]-OH; thioether N-14) was run?
A: Its IC50 is 68.8 nM.

Q: Which IC50 does the source give for `CC(C)C[C@H]1NC(=O)[C@H](C)N(C)C(=O)[C@H](Cc2ccc(OCC(=O)O)cc2)NC(=O)[C@H](Cc2ccc(-c3ccccc3)cc2)NC(=O)[C@H](Cc2ccc(OCC(=O)O)cc2)NC(=O)[C@H](Cc2c[nH]c3ccccc23)NC(=O)[C@H](CC(=O)O)NC(=O)[C@H](Cc2ccc(OCC(=O)O)cc2)NC(=O)[C@H]([C@@H](C)O)NC(=O)CSC[C@@H](C(=O)N[C@@H](CCN)C(=O)NCCOCCOCC(=O)NCCCCCCCCCCC(=O)O)NC(=O)[C@H](CCCN)NC(=O)[C@H](C(C)C)NC(=O)[C@H](CC2CCCCC2)NC(=O)[C@H](CCC(=O)O)NC1=O` [Example 1400] ({CH2CO}-TY(Carboxymethyl)DWY(Carboxymethyl)[Bip]Y(Carboxymethyl)[NMeA][dL]E[Cha]V[Orn]C[Dab][AEEA][Aun]-OH; thioether N-14) here?
A: The IC50 was 306 nM.
